According to ChEMBL document CHEMBL1149819, “Synthesis and in vivo anti-mutagenic activity of novel melatonin derivatives” (2008):

Columns and labels:
Details in all cases: route intragastric
[1] = system: Mus musculus; assay: Antimutagenic activity against cyclophosphamide-induced mutagenicity in Albino mouse liver assessed as DNA level per gram of tissue at 14.16 mg/kg administered intragastrically for 1 week; assay type: functional
[2] = system: Mus musculus; assay: Antimutagenic activity against cyclophosphamide-induced mutagenicity in Albino mouse testes assessed as DNA level per gram of tissue at 14.16 mg/kg administered intragastrically for 1 week; assay type: functional, Testis
[3] = system: Mus musculus; assay: Antimutagenic activity against cyclophosphamide-induced mutagenicity in mouse brain assessed as cholinesterase activity per microgram of tissue at 14.16 mg/kg administered intragastrically for 1 week; assay type: functional
[4] = system: Mus musculus; assay: Antimutagenic activity against cyclophosphamide-induced mutagenicity in Albino mouse testes assessed as RNA level per gram of tissue at 14.16 mg/kg administered intragastrically for 1 week; assay type: functional, Testis
[5] = system: Mus musculus; assay: Antimutagenic activity in mouse brain assessed as cholinesterase activity per microgram of tissue at 14.16 mg/kg administered intragastrically for 1 week; assay type: functional
[6] = system: Mus musculus; assay: Antimutagenic activity against cyclophosphamide-induced mutagenicity in mouse brain assessed as protein level per gram of tissue at 14.16 mg/kg administered intragastrically for 1 week; assay type: functional
[7] = system: Mus musculus; assay: Antimutagenic activity against cyclophosphamide-induced mutagenicity in mouse kidney assessed as protein level per gram of tissue at 14.16 mg/kg administered intragastrically for 1 week; assay type: functional
[8] = system: Mus musculus; assay: Antimutagenic activity against cyclophosphamide-induced mutagenicity in mouse testes assessed as protein level per gram of tissue at 14.16 mg/kg administered intragastrically for 1 week; assay type: functional, Testis
[9] = system: Mus musculus; assay: Antimutagenic activity in Albino mouse liver assessed as DNA level per gram of tissue at 14.16 mg/kg administered intragastrically for 1 week; assay type: functional
[10] = system: Mus musculus; assay: Antimutagenic activity against cyclophosphamide-induced mutagenicity in Albino mouse kidney assessed as RNA level per gram of tissue at 14.16 mg/kg administered intragastrically for 1 week; assay type: functional
[11] = system: Mus musculus; assay: Antimutagenic activity against cyclophosphamide-induced mutagenicity in Albino mouse kidney assessed as DNA level per gram of tissue at 14.16 mg/kg administered intragastrically for 1 week; assay type: functional
[12] = system: Mus musculus; assay: Antimutagenic activity in Albino mouse kidney assessed as RNA level per gram of tissue at 14.16 mg/kg administered intragastrically for 1 week; assay type: functional
[13] = system: Mus musculus; assay: Antimutagenic activity against cyclophosphamide-induced mutagenicity in Albino mouse brain assessed as DNA level per gram of tissue at 14.16 mg/kg administered intragastrically for 1 week; assay type: functional
[14] = system: Mus musculus; assay: Antimutagenic activity in mouse brain assessed as protein level per gram of tissue at 14.16 mg/kg administered intragastrically for 1 week; assay type: functional
[15] = system: Mus musculus; assay: Antimutagenic activity in mouse brain assessed as peroxidase activity per microgram of tissue at 14.16 mg/kg administered intragastrically for 1 week; assay type: functional
[16] = system: Mus musculus; assay: Antimutagenic activity in Albino mouse brain assessed as RNA level per gram of tissue at 14.16 mg/kg administered intragastrically for 1 week; assay type: functional
[17] = system: Mus musculus; assay: Antimutagenic activity in Albino mouse kidney assessed as DNA level per gram of tissue at 14.16 mg/kg administered intragastrically for 1 week; assay type: functional
[18] = system: Mus musculus; assay: Antimutagenic activity in mouse kidney assessed as protein level per gram of tissue at 14.16 mg/kg administered intragastrically for 1 week; assay type: functional
[19] = system: Mus musculus; assay: Antimutagenic activity in Albino mouse testes assessed as DNA level per gram of tissue at 14.16 mg/kg administered intragastrically for 1 week; assay type: functional, Testis
[20] = system: Mus musculus; assay: Antimutagenic activity in Albino mouse brain assessed as DNA level per gram of tissue at 14.16 mg/kg administered intragastrically for 1 week; assay type: functional
[21] = system: Mus musculus; assay: Inhibition of cyclophosphamide-induced increase in micronuclei/polychromatic erythrocytes count in mouse at 18.38 mg/kg administered intragastrically for 1 week by micronuclei assay; assay type: functional; parameters: scale not given: the % may be the effect or the level left
[22] = system: Mus musculus; assay: Antimutagenic activity in Albino mouse testes assessed as RNA level per gram of tissue at 14.16 mg/kg administered intragastrically for 1 week; assay type: functional, Testis
[23] = system: Mus musculus; assay: Antimutagenic activity against cyclophosphamide-induced mutagenicity in Albino mouse liver assessed as RNA level per gram of tissue at 14.16 mg/kg administered intragastrically for 1 week; assay type: functional
[24] = system: Mus musculus; assay: Antimutagenic activity in mouse liver assessed as protein level per gram of tissue at 14.16 mg/kg administered intragastrically for 1 week; assay type: functional
[25] = system: Mus musculus; assay: Antimutagenic activity against cyclophosphamide-induced mutagenicity in Albino mouse brain assessed as RNA level per gram of tissue at 14.16 mg/kg administered intragastrically for 1 week; assay type: functional
[26] = system: Mus musculus; assay: Antimutagenic activity against cyclophosphamide-induced mutagenicity in mouse brain assessed as peroxidase activity per microgram of tissue at 14.16 mg/kg administered intragastrically for 1 week; assay type: functional
[27] = system: Mus musculus; assay: Antimutagenic activity in Albino mouse liver assessed as RNA level per gram of tissue at 14.16 mg/kg administered intragastrically for 1 week; assay type: functional
[28] = system: Mus musculus; assay: Antimutagenic activity against cyclophosphamide-induced mutagenicity in Albino mouse brain assessed as DNA level per gram of tissue at 10 mg/kg administered intragastrically for 1 week; assay type: functional
[29] = system: Mus musculus; assay: Antimutagenic activity against cyclophosphamide-induced mutagenicity in Albino mouse testes assessed as RNA level per gram of tissue at 10 mg/kg administered intragastrically for 1 week; assay type: functional, Testis
[30] = system: Mus musculus; assay: Antimutagenic activity against cyclophosphamide-induced mutagenicity in Albino mouse kidney assessed as DNA level per gram of tissue at 10 mg/kg administered intragastrically for 1 week; assay type: functional
[31] = system: Mus musculus; assay: Antimutagenic activity in Albino mouse liver assessed as DNA level per gram of tissue at 10 mg/kg administered intragastrically for 1 week; assay type: functional
[32] = system: Mus musculus; assay: Antimutagenic activity in Albino mouse testes assessed as DNA level per gram of tissue at 10 mg/kg administered intragastrically for 1 week; assay type: functional, Testis
[33] = system: Mus musculus; assay: Antimutagenic activity in Albino mouse brain assessed as DNA level per gram of tissue at 10 mg/kg administered intragastrically for 1 week; assay type: functional
[34] = system: Mus musculus; assay: Antimutagenic activity against cyclophosphamide-induced mutagenicity in mouse liver assessed as protein level per gram of tissue at 10 mg/kg administered intragastrically for 1 week; assay type: functional
[35] = system: Mus musculus; assay: Antimutagenic activity in mouse brain assessed as protein level per gram of tissue at 10 mg/kg administered intragastrically for 1 week; assay type: functional
[36] = system: Mus musculus; assay: Antimutagenic activity against cyclophosphamide-induced mutagenicity in mouse kidney assessed as protein level per gram of tissue at 10 mg/kg administered intragastrically for 1 week; assay type: functional
[37] = system: Mus musculus; assay: Antimutagenic activity in Albino mouse kidney assessed as RNA level per gram of tissue at 10 mg/kg administered intragastrically for 1 week; assay type: functional
[38] = system: Mus musculus; assay: Antimutagenic activity against cyclophosphamide-induced mutagenicity in Albino mouse kidney assessed as RNA level per gram of tissue at 10 mg/kg administered intragastrically for 1 week; assay type: functional
[39] = system: Mus musculus; assay: Antimutagenic activity in mouse brain assessed as peroxidase activity per microgram of tissue at 10 mg/kg administered intragastrically for 1 week; assay type: functional
[40] = system: Mus musculus; assay: Antimutagenic activity in Albino mouse liver assessed as RNA level per gram of tissue at 10 mg/kg administered intragastrically for 1 week; assay type: functional
[41] = system: Mus musculus; assay: Antimutagenic activity in Albino mouse brain assessed as RNA level per gram of tissue at 10 mg/kg administered intragastrically for 1 week; assay type: functional
[42] = system: Mus musculus; assay: Antimutagenic activity in mouse liver assessed as protein level per gram of tissue at 10 mg/kg administered intragastrically for 1 week; assay type: functional
[43] = system: Mus musculus; assay: Antimutagenic activity against cyclophosphamide-induced mutagenicity in Albino mouse brain assessed as RNA level per gram of tissue at 10 mg/kg administered intragastrically for 1 week; assay type: functional
[44] = system: Mus musculus; assay: Antimutagenic activity against cyclophosphamide-induced mutagenicity in mouse brain assessed as protein level per gram of tissue at 10 mg/kg administered intragastrically for 1 week; assay type: functional
[45] = system: Mus musculus; assay: Antimutagenic activity against cyclophosphamide-induced mutagenicity in mouse brain assessed as peroxidase activity per microgram of tissue at 10 mg/kg administered intragastrically for 1 week; assay type: functional
[46] = system: Mus musculus; assay: Antimutagenic activity in Albino mouse kidney assessed as DNA level per gram of tissue at 10 mg/kg administered intragastrically for 1 week; assay type: functional
[47] = system: Mus musculus; assay: Antimutagenic against cyclophosphamide-induced mutagenicity in Albino mouse liver assessed as DNA level per gram of tissue at 10 mg/kg administered intragastrically for 1 week; assay type: functional
[48] = system: Mus musculus; assay: Antimutagenic activity in mouse brain assessed as cholinesterase activity per microgram of tissue at 10 mg/kg administered intragastrically for 1 week; assay type: functional
[49] = system: Mus musculus; assay: Antimutagenic activity against cyclophosphamide-induced mutagenicity in mouse testes assessed as protein level per gram of tissue at 10 mg/kg administered intragastrically for 1 week; assay type: functional, Testis
[50] = system: Mus musculus; assay: Antimutagenic activity against cyclophosphamide-induced mutagenicity in mouse brain assessed as cholinesterase activity per microgram of tissue at 10 mg/kg administered intragastrically for 1 week; assay type: functional
[51] = system: Mus musculus; assay: Antimutagenic activity in mouse kidney assessed as protein level per gram of tissue at 10 mg/kg administered intragastrically for 1 week; assay type: functional
[52] = system: Mus musculus; assay: Antimutagenic activity against cyclophosphamide-induced mutagenicity in Albino mouse testes assessed as DNA level per gram of tissue at 10 mg/kg administered intragastrically for 1 week; assay type: functional, Testis
[53] = system: Mus musculus; assay: Antimutagenic activity in Albino mouse testes assessed as RNA level per gram of tissue at 10 mg/kg administered intragastrically for 1 week; assay type: functional, Testis
[54] = system: Mus musculus; assay: Inhibition of cyclophosphamide-induced increase in micronuclei/polychromatic erythrocytes count in mouse at 10 mg/kg administered intragastrically for 1 week by micronuclei assay; assay type: functional; parameters: scale not given: the % may be the effect or the level left
[55] = system: Mus musculus; assay: Antimutagenic activity against cyclophosphamide-induced mutagenicity in Albino mouse liver assessed as RNA level per gram of tissue at 10 mg/kg administered intragastrically for 1 week; assay type: functional

COc1ccc2c(c1)c(CCNC(C)=O)c1sc(CC#N)nn12
Activity [1]: 0.25 mg
Activity [2]: 0.28 mg
Activity [3]: 2.73 U
Activity [4]: 0.19 mg
Activity [5]: 3.3 U
Activity [6]: 2.71 g
Activity [7]: 4.94 g
Activity [8]: 3.49 g
Activity [9]: 0.27 mg
Activity [10]: 0.22 mg
Activity [11]: 0.35 mg
Activity [12]: 0.23 mg
Activity [13]: 0.21 mg
Activity [14]: 2.98 g
Activity [15]: 1.06 U/min
Activity [16]: 0.19 mg
Activity [17]: 0.28 mg
Activity [18]: 7.87 g
Activity [19]: 0.32 mg
Activity [20]: 0.33 mg
Activity [21]: 28%
Activity [22]: 0.21 mg
Activity [23]: 0.34 mg
Activity [24]: 9.95 g
Activity [25]: 0.16 mg
Activity [26]: 1.24 U/min
Activity [27]: 0.3 mg

COc1ccc2[nH]cc(CCNC(C)=O)c2c1 [MELATONIN]
Activity [28]: 0.21 mg
Activity [29]: 0.17 mg
Activity [30]: 0.24 mg
Activity [31]: 0.26 mg
Activity [32]: 0.26 mg
Activity [33]: 0.32 mg
Activity [34]: 8.42 g
Activity [35]: 2.48 g
Activity [36]: 4.42 g
Activity [37]: 0.38 mg
Activity [38]: 0.19 mg
Activity [39]: 3.38 U/min
Activity [40]: 0.44 mg
Activity [41]: 0.18 mg
Activity [42]: 8.42 g
Activity [43]: 0.15 mg
Activity [44]: 2.37 g
Activity [45]: 2.54 U/min
Activity [46]: 0.25 mg
Activity [47]: 0.23 mg
Activity [48]: 3.13 U
Activity [49]: 2.96 g
Activity [50]: 2.63 U
Activity [51]: 6.39 g
Activity [52]: 0.23 mg
Activity [53]: 0.34 mg
Activity [54]: 41%
Activity [55]: 0.28 mg
